Holding throughout (format): in vivo, Streptococcus pyogenes; female CD-1 mice
The subject of test [1] is Streptococcus pyogenes (ATCC 8668). Kind of test: Mouse protection test against wild type Streptococcus pyogenes. Particulars: 0.08 mg/kg sc, repeated at 4 hours, 7 days.
Test [2] concerns multidrug resistant Streptococcus pyogenes (#OTTO 209). Kind of test: Mouse protection test against multidrug resistant Streptococcus pyogenes. Particulars: for Protective % / Number of Alive: repeated at 4 hours, 7 days; for Number of Alive: of 5 mice. The source says: (§1) The mouse protection test is an industry standard for measuring the efficacy of a test compound in vivo [for examples of this model see J. J. Clement, et al., Antimicrobial Agents and Chemotherapy, 38 (5), 1071-1078, (1994)]. As exemplified below, this test was used to show the in vivo efficacy of the compounds of the present invention against bacteria.
The in vivo activity of compound X against multidrug resistant bacteria was established by infecting female CD-1 mice (Charles River Lab, Massachusettes) weighing 20-24 g intraperitoneally with multidrug resistant Streptococcus pyogenes inoculum. The inoculum was prepared from multidrug resistant Streptococcus pyogenes (resistant to erythromycin, tetracycline, and chloramphenicol, #OTTO 209 obtained from Dr. Pentti Huovinen, National Public Health Institute, Finland) which was cultured in brain heart infusion broth (Baltimore Biological Laboratories, Maryland) at 37° C. for 2 hr, and then 0.1 ml of the culture was diluted with the medium to 1.0 ml for reading its OD at 600 nm (0.12). The turbidity of a 0.5 McFarland standard is equivalent to OD600 0.1, or 10^8 cfu/ml. Then, 4×10^8 cfu of the bacteria (333 μl was added to 20 ml of phosphate buffered saline (Sigma P-0261 ) containing 10 % hog gastric mucin (Sigma M-2378). All animals were injected with 0.5 ml of the inoculum, equivalent to 10^7 cfu/mouse which is the dose causing ~100% death of the animals without treatment.
Compound X (60 mg) was dissolved in 6.0 ml of 0.05M Tris.HCl (pH 8.8) to give a solution of 10 mg/ml. This solution was serially diluted two times with 0.05M Tris.HCl by 5-fold (1.0 ml to 5.0 ml) to give 2 and 0.4 mg/ml solutions. The known antibiotic vancomycin HCl (Sigma V-2002, in normal saline, 1 mg/ml, pH 6.0-7.0) was used as a positive control. All the solutions were filtered with 0.2 μm Nalgene syringe filter. Immediately after the bacterial inoculation, group 1 animals were subcutaneously (sc) injected with 0.05M Tris.HCl (no antibiotic) and groups 2 to 4 were given compound X sc at 4, 20 and 100 mg/kg, respectively. Group 5 animals received vancomycin sc at 10 mg/kg. These injections were repeated once at 4 hours after the inoculation for the respective groups. The injection volume at each time was 10 ml per kilogram of body weight. The 50% protective dose (PD50) is calculated on the basis of the number of mice surviving 7 days after inoculation.

Test [3] has as its system Streptococcus pyogenes (ATCC 8668). Kind of test: Mouse protection test against wild type Streptococcus pyogenes. Particulars: for Protective % / Number of Alive: repeated at 4 hours, 7 days; for Number of Alive: of 5 mice.
Text: as §1
The in vivo antibacterial activity of compound X was established by infecting female CD-1 mice (Charles River Lab, Massachusettes) weighing 20-24 g intraperitoneally with Streptococcus pyogenes inoculum. The inoculum was prepared from Streptococcus pyogenes (ATCC 8668) which was cultured in brain heart infusion broth (Baltimore Biological Laboratories,Maryland) at 37° C. for 18 hr, and then 0.1 ml of the overnight culture was diluted with the medium to 5.0 ml for reading its OD at 600 nm (0.017). The turbidity of a 0.5 McFarland standard is equivalent to OD600 0.1, or 10^8 cfu/ml. Then, 8×10^5 cfu of the bacteria (940 μl of 1:1000 overnight culture) was added to 20 ml of phosphate buffered saline (Sigma P-0261 ) containing 5% hog gastric mucin (Sigma M-2378). All animals were injected with 0.5 ml of the inoculum, equivalent to 2×10^4 cfu/mouse which is the dose causing ~100% death of the animals without treatment.
Compound X (50 mg) was dissolved in 5.0 ml of 0.05M Tris.HCl (pH 8.8) to give a solution of 10 mg/ml. This solution was serially diluted with 0.05 M Tris.HCl by 5-fold (1.0 ml to 5.0 ml) to give 2, 0.4 and 0.08 mg/ml solutions. The known antibiotic erythromycin (Sigma E-6376, in phosphate buffered saline, 1 mg/ml, pH 7.0) was used as a positive control. All the solutions were filtered with 0.2 μm Nalgene syringe filter. Immediately after the bacterial inoculation, group 1 animals were subcutaneously (sc) injected with 0.05M Tris.HCl (no antibiotic) and groups 2 to 5 were given compound X sc at 0.8, 4, 20, and 100 mg/kg, respectively. Group 6 animals received erythromycin sc at 10 mg/kg. These injections were repeated once at 4 hours after the inoculation for the respective groups. The injection volume at each time was 10 ml per kilogram of body weight. The 50% protective dose (PD50) is calculated on the basis of the number of mice surviving 7 days after inoculation.

On to `CC[C@H](C)[C@H](N)C(=O)NS(=O)(=O)OC[C@H]1O[C@@H](CCn2nnc(-c3ccc(Oc4ccccc4)cc3)n2)[C@H](O)[C@@H]1O` [Compound X, [S-(R*,R*)]-3,6-anhydro-1,2-dideoxy-1-[5-(4-phenoxyphenyl)-2H-tetrazol-2-yl]-D-allo-heptitol 7-(2-amino-3-methyl-1-oxopentyl)sulfamate], for which the Protective % is recorded as 0% in test [1]; 0% in test [2] (4 mg/kg sc); 80% in test [2] (20 mg/kg sc); 100% in test [2] (100 mg/kg sc); 0% in test [3] (4 mg/kg sc); 40% in test [3] (20 mg/kg sc). This compound showed a Protective % in test [3] (100 mg/kg sc) of 100%. Further, the “Number of Alive” value turned out to be 0 in test [1] (of 5 mice); 0 in test [2] (4 mg/kg sc); 4 in test [2] (20 mg/kg sc); 5 in test [2] (100 mg/kg sc); 0 in test [3] (4 mg/kg sc); 2 in test [3] (20 mg/kg sc). Moreover, the “Number of Alive” value in test [3] (100 mg/kg sc) is recorded as 5. Further, the ED50 amounted to 16.5 mg/kg in test [2] (Streptococcus pyogenes, 168 h, sc, mice surviving 7 days after inoculation, multidrug resistant, read-out: PD50 (50% protective dose)) and 21.1 mg/kg in test [3] (Streptococcus pyogenes, ATCC8668, 168 h, sc, mice surviving 7 days after inoculation, wild type, read-out: PD50 (50% protective dose)).

For the origin of these results see patent publication US5726195A, “Aminoacyl adenylate mimics as novel antimicrobial and antiparasitic agents” (Cubist Pharmaceuticals, Inc., priority 1996, dated 1998).
